Results on 19 compounds are retold here after publication PMC9897792, “Discovery of novel 2-(4-(benzyloxy)-5-(hydroxyl) phenyl) benzothiazole derivatives as multifunctional MAO-B inhibitors for the treatment of Parkinson’s disease” (Journal of Enzyme Inhibition and Medicinal Chemistry, 2023).

A short description of series [1]: Oxygen radical absorbance capacity assay with fluorescein (ORAC-FL). The conditions noted are these: Trolox as standard. On the procedure:
Oxygen radical absorbance capacity assay which used fluorescein (ORAC-FL) was performed to measure the antioxidant activities of 2-(4-(benzyloxy)-5-(hydroxyl) phenyl) benzothiazole derivatives. […] It reflected that introduction of alkyl substituents on benzyloxy ring was more beneficial for the improvement of in vitro antioxidant activity. However, the position and number of substituents seem to have little influence on the antioxidative activities.
Test compounds solution (20 µL, 10 µM) and fluorescein solution (120 µL, 250 nM) were added to a black 96-wells plate in order. The mixture was incubated for 15 min at 37 °C. Then, AAPH solution (60 µL, 40 mM) was added through an automatic sampler. The fluorescence was recorded with excitation and emission wavelengths at 485 and 535 nm on the multifunctional enzyme marker (Thermo Scientific), and the area under the curve (AUC) was calculated automatically. Trolox was used as a reference, and the antioxidant activities of the compounds were expressed as Trolox equivalent. The test compound solution was replaced with PBS (20 µL) in blank well. The antioxidant activities of the test compounds were calculated by the formula: [(AUCsample − AUCblank)/(AUCtrolox − AUCblank)] × [(Trolox concentration/test sample concentration)].

In series [2] the target is T1, MAO-B (Homo sapiens, UniProt P27338).
T1 sequence (P27338 1-520): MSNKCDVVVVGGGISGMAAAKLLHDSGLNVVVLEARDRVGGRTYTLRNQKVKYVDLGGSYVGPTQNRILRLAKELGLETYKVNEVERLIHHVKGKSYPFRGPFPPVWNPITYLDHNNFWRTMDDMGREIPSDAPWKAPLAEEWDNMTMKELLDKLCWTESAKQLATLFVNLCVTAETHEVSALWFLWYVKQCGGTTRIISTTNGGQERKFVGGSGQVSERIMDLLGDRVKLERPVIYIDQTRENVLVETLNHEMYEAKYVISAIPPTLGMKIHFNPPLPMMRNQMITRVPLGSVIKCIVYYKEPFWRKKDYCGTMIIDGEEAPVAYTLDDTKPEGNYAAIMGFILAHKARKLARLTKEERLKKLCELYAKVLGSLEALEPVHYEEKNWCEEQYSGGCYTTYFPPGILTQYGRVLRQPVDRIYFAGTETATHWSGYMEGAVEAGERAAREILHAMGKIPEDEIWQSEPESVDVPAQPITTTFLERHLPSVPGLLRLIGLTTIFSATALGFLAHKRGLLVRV
Briefly: MAO-B inhibition, kynuramine method. The format is biochemical.

The target in a further series is T2, MAO-A (Homo sapiens, UniProt P21397).
T2 sequence (P21397 1-527): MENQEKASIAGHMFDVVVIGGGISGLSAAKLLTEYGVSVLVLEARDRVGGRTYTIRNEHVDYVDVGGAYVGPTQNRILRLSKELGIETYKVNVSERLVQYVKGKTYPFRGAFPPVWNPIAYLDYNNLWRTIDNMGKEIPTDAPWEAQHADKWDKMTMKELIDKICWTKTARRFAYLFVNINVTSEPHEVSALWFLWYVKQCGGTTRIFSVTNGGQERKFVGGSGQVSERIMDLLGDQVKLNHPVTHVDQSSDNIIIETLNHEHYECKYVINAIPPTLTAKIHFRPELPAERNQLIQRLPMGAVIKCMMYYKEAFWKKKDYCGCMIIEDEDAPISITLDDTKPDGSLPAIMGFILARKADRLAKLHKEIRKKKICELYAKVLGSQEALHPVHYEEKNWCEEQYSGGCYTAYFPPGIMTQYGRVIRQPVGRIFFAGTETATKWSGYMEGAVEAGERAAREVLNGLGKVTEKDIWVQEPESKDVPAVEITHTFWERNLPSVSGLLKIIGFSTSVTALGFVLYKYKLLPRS
The series is described as follows: MAO-A inhibition, kynuramine method. Format: biochemical. The conditions noted are these: for inhibition at 10 µM: read-out: %Inhibition MAO-A.

The conditions of series [3]: PAMPA-BBB literature values ref 1 (Di et al., Eur. J. Med. Chem. 2003, 38, 223); cited from earlier work. (The PAMPA barrier holds no transporters, so it reflects passive diffusion.)
Series [4] addresses T1, MAO-B. Briefly: Reversibility study of MAO-B inhibition by dialysis method. The format is biochemical. The conditions noted are these: for MAO-B inhibitory mode: classified by MAO-B catalytic activity in dialysis group; for MAO-B catalytic activity, undialysis group / MAO-B catalytic activity, dialysis group: test compound 4 × IC50; for MAO-B catalytic activity, undialysis group: 4 °C for 24 h without dialysis; for MAO-B catalytic activity, dialysis group: dialysis 24 h.
Method: The mixture was incubated at 37 °C for 30 min and transferred to dialysis bag (MWCO: 10 000, flattening width: 24 mm, length: 8–10 cm). Then, this dialysis bag was placed in 200 ml PBS for 24 h, and the outer PBS was replaced with fresh at 3 and 7 h, respectively. As for the undialysis group, the mixture was placed at 4 °C for 24 h. After dialysis, the mixtures (40 µL) in the dialysis bag were taken out to measure the catalytic activity, and the test method was similar with the inhibition experiment of MAOs. […] The test compound solution was replaced with PBS buffer at the same volume in the blank group.

Setting [5] is: at the concentration of 10.0 μM, n.a. = no active, percent inhibition <5.0%.

Molecules are shown by their SMILES. “And” between values parts separate entries of the source, which are not always exact repeats. Identical values can stand only once. Like-named read-outs stand apart in the source and are kept apart here.

As for `Oc1cc(OCc2ccccc2)ccc1-c1nc2ccccc2s1` [3a, 2-(Benzo[d]thiazol-2-yl)-5-(benzyloxy)phenol], in series [1], the ORAC turned out to be 2.13 ± 0.05 Trolox equivalents. The same compound showed an IC50 on MAO-B [2] of 3.93 ± 0.259 µM. Besides, the inhibition at 10 µM at MAO-A (setting [5]) amounted to 24.83 ± 0.11%.
`Oc1cc(OCc2ccccc2F)ccc1-c1nc2ccccc2s1` [3b, 2-(Benzo[d]thiazol-2-yl)-5-((2-fluorobenzyl)oxy)phenol]: in series [1], the ORAC is 2.32 ± 0.02 Trolox equivalents. At MAO-B [2], this compound displayed an IC50 of 1.67 ± 0.146 µM. The inhibition at 10 µM on MAO-A (setting [5]) turned out to be 14.25 ± 0.07%.
The corresponding values for `Oc1cc(OCc2ccccc2Cl)ccc1-c1nc2ccccc2s1` [3c, 2-(Benzo[d]thiazol-2-yl)-5-((2-chlorobenzyl)oxy)phenol] are 2.26 ± 0.09 Trolox equivalents, 2.9 ± 0.031 µM and 19.58 ± 0.06%.
On to `Oc1cc(OCc2cccc(F)c2)ccc1-c1nc2ccccc2s1` [3d, 2-(Benzo[d]thiazol-2-yl)-5-((3-fluorobenzyl)oxy)phenol], for which, in series [1], the ORAC was determined as 2.24 ± 0.10 Trolox equivalents. This compound gave an IC50 at MAO-B [2] of 0.526 ± 0.024 µM. For the same compound, the inhibition at 10 µM on MAO-A (setting [5]) amounted to 18.41 ± 0.05%.
Compound `Oc1cc(OCc2cccc(Cl)c2)ccc1-c1nc2ccccc2s1` [3e, 2-(Benzo[d]thiazol-2-yl)-5-((3-chlorobenzyl)oxy)phenol] came in with an ORAC in series [1] of 2.31 ± 0.07 Trolox equivalents. For the same compound, the IC50 against MAO-B [2] came out at 1.05 ± 0.083 µM. The inhibition at 10 µM on MAO-A (setting [5]) came out at 31.6 ± 0.28%.
Compound `Oc1cc(OCc2cccc(C(F)(F)F)c2)ccc1-c1nc2ccccc2s1` [3f, 2-(Benzo[d]thiazol-2-yl)-5-((3-(trifluoromethyl)benzyl)oxy)phenol] displayed an ORAC in series [1] of 2.25 ± 0.07 Trolox equivalents. The IC50 against MAO-B [2] was found to be 0.951 ± 0.062 µM.
In turn, `COc1cccc(COc2ccc(-c3nc4ccccc4s3)c(O)c2)c1` [3g, 2-(Benzo[d]thiazol-2-yl)-5-((3-methoxybenzyl)oxy)phenol] registered an ORAC in series [1] of 2.30 ± 0.04 Trolox equivalents. Besides, 1.52 ± 0.097 µM corresponded to half-maximal inhibition on MAO-B [2] (IC50).
As for `Oc1cc(OCc2ccc(Cl)cc2)ccc1-c1nc2ccccc2s1` [3i, 2-(Benzo[d]thiazol-2-yl)-5-((4-chlorobenzyl)oxy)phenol], the ORAC in series [1] is reported as 2.23 ± 0.06 Trolox equivalents. The compound also yielded an IC50 on MAO-B [2] of 0.314 ± 0.01 µM. The inhibition at 10 µM at MAO-A (setting [5]) came out at 47.14 ± 0.21%.
On to `Cc1ccc(COc2ccc(-c3nc4ccccc4s3)c(O)c2)cc1` [3j, 2-(Benzo[d]thiazol-2-yl)-5-((4-methylbenzyl)oxy)phenol], for which, in series [1], the ORAC turned out to be 2.39 ± 0.14 Trolox equivalents. This compound had an IC50 against MAO-B [2] of 1.94 ± 0.078 µM. For the same compound, the inhibition at 10 µM at MAO-A (setting [5]) came out at 34.32 ± 0.09%.
Regarding `CC(C)(C)c1ccc(COc2ccc(-c3nc4ccccc4s3)c(O)c2)cc1` [3k, 2-(Benzo[d]thiazol-2-yl)-5-((4-(tert-butyl)benzyl)oxy)phenol], in series [1], the ORAC was 2.48 Trolox equivalents and 2.48 ± 0.13 Trolox equivalents. On MAO-B [2], this compound yielded an IC50 of 3.407 ± 0.032 µM.
In series [1], `O=[N+]([O-])c1ccc(COc2ccc(-c3nc4ccccc4s3)c(O)c2)cc1` [3l, 2-(Benzo[d]thiazol-2-yl)-5-((4-nitrobenzyl)oxy)phenol] gave an ORAC of 2.14 ± 0.06 Trolox equivalents. In addition, at MAO-B [2], the IC50 amounted to 0.784 ± 0.028 µM. Moreover, the inhibition at 10 µM on MAO-A (setting [5]) was 25.16 ± 0.13%.
The compound `Oc1cc(OCc2ccc(F)c(F)c2)ccc1-c1nc2ccccc2s1` [3m, 2-(Benzo[d]thiazol-2-yl)-5-((3,4-difluorobenzyl)oxy)phenol] registered an ORAC in series [1] of 2.24 ± 0.11 Trolox equivalents. Moreover, on MAO-B [2], the IC50 was 0.423 ± 0.009 µM. The inhibition at 10 µM at MAO-A (setting [5]) amounted to 47.52 ± 0.36%.
As to `Oc1cc(OCc2ccc(Cl)c(Cl)c2)ccc1-c1nc2ccccc2s1` [3n, 2-(Benzo[d]thiazol-2-yl)-5-((3,4-dichlorobenzyl)oxy)phenol], the ORAC in series [1] worked out at 2.21 ± 0.09 Trolox equivalents. In addition, the IC50 is 0.97 ± 0.011 µM against MAO-B [2] and 9.8 ± 0.19 µM against MAO-A.
The compound `Oc1cc(OCc2ccc(F)c(Cl)c2)ccc1-c1nc2ccccc2s1` [3o, 2-(Benzo[d]thiazol-2-yl)-5-((3-chloro-4-fluorobenzyl)oxy)phenol] came in with an ORAC in series [1] of 2.27 ± 0.05 Trolox equivalents. On MAO-B [2], this compound came in with an IC50 of 0.521 ± 0.007 µM. The inhibition at 10 µM at MAO-A (setting [5]) was found to be 49.9 ± 0.53%.
On to `O=C1Nc2ccc(Cl)cc2C(c2ccccc2)=NC1O` (centres unmarked) [Oxazepam], for which, in series [3], the “Pe (Bibl)” value was 10 ×10⁻⁶ cm/s.
As for `CN1C(C(=O)Nc2ccccn2)=C(O)c2ccccc2S1(=O)=O` [Piroxicam], the “Pe (Bibl)” value in series [3] is 2.5 ×10⁻⁶ cm/s.
As for `C#CCN[C@@H]1CCc2ccccc21` [Rasagiline], at MAO-B [4], the MAO-B inhibitory mode result is on record as “irreversible (irreversible inhibition: MAO-B catalytic activity ≤ 20%)”; the “MAO-B catalytic activity, undialysis group” value worked out at 2.7%; the “MAO-B catalytic activity, dialysis group” value is reported as 4.2%.
In turn, `C[C@H](NCc1ccc(OCc2cccc(F)c2)cc1)C(N)=O` [Safinamide] came in with an ORAC in series [1] of 1.12 ± 0.01 Trolox equivalents. Besides, at MAO-B [4], the MAO-B inhibitory mode result is “reversible (reversible inhibition: MAO-B catalytic activity ≥ 80%)”; the “MAO-B catalytic activity, undialysis group” value came to 39.3%; the “MAO-B catalytic activity, dialysis group” value was determined as 93.0%. The inhibition at 10 µM at MAO-A was 24.9 ± 0.04%.
Consider `Cn1c(=O)c2[nH]cnc2n(C)c1=O` [Theophylline], for which, in series [3], the “Pe (Bibl)” value is 0.12 ×10⁻⁶ cm/s.

As usually defined, the IC50 is the point on the concentration scale where inhibition reaches its midpoint. High values mean lower potency, low ones higher potency. As usually defined, the inhibition is the drop in the measured response relative to a control, in per cent.
